target: Inward rectifier potassium channel 2 (Mus musculus) (UniProt P35561); assay: Kir2.1 current blockers by manual electrophysiology, SAR follow-up, orthogonal assay, manual whole-cell patch clamp, extended SAR, set 1 (AID 504828); settings: Kir2.1-expressing cells, -100 mV
Sequence (P35561 whole entry, looked up): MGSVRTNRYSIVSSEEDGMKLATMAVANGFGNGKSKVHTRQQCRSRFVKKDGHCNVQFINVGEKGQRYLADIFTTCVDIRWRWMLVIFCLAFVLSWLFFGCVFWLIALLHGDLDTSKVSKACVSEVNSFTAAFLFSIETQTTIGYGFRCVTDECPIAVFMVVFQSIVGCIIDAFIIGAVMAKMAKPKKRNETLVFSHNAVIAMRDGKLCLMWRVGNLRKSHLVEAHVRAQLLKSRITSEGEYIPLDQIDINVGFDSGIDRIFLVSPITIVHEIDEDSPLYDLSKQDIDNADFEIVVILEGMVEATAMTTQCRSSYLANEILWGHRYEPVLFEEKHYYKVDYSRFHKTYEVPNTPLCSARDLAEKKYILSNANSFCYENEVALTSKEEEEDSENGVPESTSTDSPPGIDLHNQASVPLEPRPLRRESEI

Structure (SMILES)	IC50 [µM]
CC(NS(=O)(=O)c1ccc(Br)cc1)c1ccccc1 (stereo unspecified)	8.82
Cc1ccc2nc(NCc3ccccc3)[nH]c2c1	16.6
Cc1ccc(C)c(OCCCNCc2ccccc2)c1	5.94
CC(O)CNCCCOc1cccc(Oc2ccccc2)c1 (stereo unspecified)	4.12
Cc1noc(C)c1COC(=O)CCN1c2ccccc2Sc2ccccc21	3.21
O=S(=O)(c1ccc(F)cc1)N1CCCc2ccccc21	11.1

— PubChem BioAssay AID504828 (Johns Hopkins Ion Channel Center, 2011)
